# Measured values taken from patent US8232401B2 (Japan Tobacco Inc., priority 2002, dated 2012).
# Experiments:
# HIV integrase = target: T1, HIV integrase (Human immunodeficiency virus type 1 group M subtype B, UniProt P12497, F1332H); assay: Determination of enzyme (HIV integrase) inhibitory activity (strand transfer, microtiter plate, absorbance at 450 nm); format: biochemical, HIV (Human Immunodeficiency Virus (type 1)); conditions: recombinant HIV integrase (F185H) expressed in E. coli; donor DNA on streptavidin plate, digoxigenin target DNA; 37° C.
# T1 construct: HIV integrase full length gene; made in house; host or cells: Escherichia coli BL21(DE3)
Compound,melting point,IC50 (HIV integrase)
"O=C(O)c1cn(CCO)c2ccc(Cc3cccc(Cl)c3Cl)cc2c1=O [Example 1-1, 6-(2,3-dichlorobenzyl)-1,4-dihydro-1-(2-hydroxyethyl)-4-oxo-3-quinolinecarboxylic acid]",247 to 249 °C,29 nM
"CCC[C@@H](CO)n1cc(C(=O)O)c(=O)c2cc(Cc3cccc(Cl)c3F)c(OC)cc21 [Example 4-38, (S)-6-(3-Chloro-2-fluorobenzyl)-1-[1-(hydroxymethyl)butyl]-7-methoxy-4-oxo-1,4-dihydroquinoline-3-carboxylic acid]",–,3.3 nM
"COc1cc(Cc2cccc(Cl)c2F)cc2c(=O)c(C(=O)O)cn(CCO)c12 [Example 3-34, 6-(3-Chloro-2-fluorobenzyl)-1-(2-hydroxyethyl)-8-methoxy-4-oxo-1,4-dihydroquinoline-3-carboxylic acid]",–,11 nM
"CN(C)c1cc2c(cc1Cc1cccc(Cl)c1F)c(=O)c(C(=O)O)cn2CCO [Example 3-62, 6-(3-Chloro-2-fluorobenzyl)-7-dimethylamino-1-(2-hydroxyethyl)-4-oxo-1,4-dihydroquinoline-3-carboxylic acid]",–,27 nM
"O=C(O)c1cc2c(cc1Cc1cccc(Cl)c1Cl)c(=O)c(C(=O)O)cn2CCO [Example 3-36, 7-Carboxy-6-(2,3-dichlorobenzyl)-1-(2-hydroxyethyl)-4-oxo-1,4-dihydroquinoline-3-carboxylic acid]",–,51 nM
"Nc1cc(Cc2cccc(Cl)c2F)cc2c(=O)c(C(=O)O)cn(CCO)c12 [Example 3-35, 8-Amino-6-(3-chloro-2-fluorobenzyl)-1-(2-hydroxyethyl)-4-oxo-1,4-dihydroquinoline-3-carboxylic acid]",–,11 nM
"CCCCn1cc(C(=O)O)c(=O)c2cc(Cc3cccc(Cl)c3Cl)ccc21 [Example 1-39, 1-Butyl-6-(2,3-Dichlorobenzyl)-4-oxo-1,4-dihydroquinoline-3-carboxylic acid]",–,180 nM
"O=C(O)c1cn(CCO)c2ccc(Cc3cccc(F)c3Cl)cc2c1=O [Example 1-66, 6-(2-Chloro-3-fluorobenzyl)-1-(2-hydroxyethyl)-4-oxo-1,4-dihydroquinoline-3-carboxylic acid]",–,49 nM
"CCNc1cc(Cc2cccc(Cl)c2F)cc2c(=O)c(C(=O)O)cn(CCO)c12 [Example 3-55, 6-(3-Chloro-2-fluorobenzyl)-8-ethylamino-1-(2-hydroxyethyl)-4-oxo-1,4-dihydroquinoline-3-carboxylic acid]",–,8.7 nM
"CC[C@@H](CO)n1cc(C(=O)O)c(=O)c2cc(Cc3cccc(Cl)c3F)cc(OC(C)C)c21 [Example 4-17, (S)-6-(3-Chloro-2-fluorobenzyl)-1-[1-(hydroxymethyl)propyl]-8-isopropyloxy-4-oxo-1,4-dihydroquinoline-3-carboxylic acid]",–,3.1 nM
"Cc1cc2c(cc1Cc1cccc(Cl)c1Cl)c(=O)c(C(=O)O)cn2CCO [Example 4-15, 6-(2,3-Dichlorobenzyl)-7-methyl-1-(2-hydroxyethyl)-4-oxo-1,4-dihydroquinoline-3-carboxylic acid]",–,31 nM
"COc1cc(Cc2c(F)ccc(Cl)c2F)cc2c(=O)c(C(=O)O)cn(CCO)c12 [Example 3-37, 6-(3-Chloro-2,6-difluorobenzyl)-1-(2-hydroxyethyl)-8-methoxy-4-oxo-1,4-dihydroquinoline-3-carboxylic acid]",–,11 nM
"COC(=O)Nn1cc(C(=O)O)c(=O)c2cc(Cc3cccc(Cl)c3Cl)ccc21 [Example 2-2, 6-(2,3-Dichlorobenzyl)-1-methoxycarbonylamino-4-oxo-1,4-dihydroquinoline-3-carboxylic acid]",–,180 nM
"CCOc1cc2c(cc1Cc1cccc(Cl)c1F)c(=O)c(C(=O)O)cn2[C@H](CO)C1CCCCC1 [Example 4-43, (S)-6-(3-Chloro-2-fluorobenzyl)-1-(1-cyclohexyl-2-hydroxyethyl)-7-ethoxy-4-oxo-1,4-dihydroquinoline-3-carboxylic acid]",–,2.8 nM
"COc1cc(Cc2cccc(Cl)c2F)cc2c(=O)c(C(=O)O)cn([C@H](CO)C(C)C)c12 [Example 4-46, (S)-6-(3-Chloro-2-fluorobenzyl)-1-(1-hydroxymethyl-2-methylpropyl)-8-methoxy-4-oxo-1,4-dihydroquinoline-3-carboxylic acid]",–,5 nM
O=C(O)c1cn(CCO)c2ccc(Cc3cccc(Cl)c3Cl)cc2c1=O [Example 1-63],–,20 nM
"CN(C)CCn1cc(C(=O)O)c(=O)c2cc(Cc3cccc(Cl)c3Cl)ccc21 [Example 1-24, 6-(2,3-Dichlorobenzyl)-1-(2-dimethylaminoethyl)-4-oxo-1,4-dihydroquinoline-3-carboxylic acid]",–,290 nM
"Nn1cc(C(=O)O)c(=O)c2cc(Cc3cccc(Cl)c3Cl)ccc21 [Example 2-1, 1-Amino-6-(2,3-dichlorobenzyl)-4-oxo-1,4-dihydroquinoline-3-carboxylic acid]",–,170 nM
"CCn1cc(C(=O)O)c(=O)c2cc(Cc3cccc(Cl)c3Cl)ccc21 [Example 1-37, 6-(2,3-Dichlorobenzyl)-1-ethyl-4-oxo-1,4-dihydroquinoline-3-carboxylic acid]",–,110 nM
"COc1c(Cl)cccc1Cc1ccc2c(c1)c(=O)c(C(=O)O)cn2CCO [Example 3-3, 6-(3-Chloro-2-methoxybenzyl)-1-(2-hydroxyethyl)-4-oxo-1,4-dihydroquinoline-3-carboxylic acid]",–,190 nM
"Cc1c(Cl)cccc1Cc1ccc2c(c1)c(=O)c(C(=O)O)cn2CCO [Example 3-2, 6-(3-Chloro-2-methylbenzyl)-1-(2-hydroxyethyl)-4-oxo-1,4-dihydroquinoline-3-carboxylic acid]",–,200 nM
"CS(=O)(=O)Cn1cc(C(=O)O)c(=O)c2cc(Cc3cccc(Cl)c3Cl)ccc21 [Example 1-69, 6-(2,3-Dichlorobenzyl)-1-methanesulfonylmethyl-4-oxo-1,4-dihydroquinoline-3-carboxylic acid]",–,74 nM
"CCOc1cc2c(cc1Cc1cccc(Cl)c1F)c(=O)c(C(=O)O)cn2[C@H](CO)[C@@H](C)CC [Example 4-28, 6-(3-Chloro-2-fluorobenzyl)-7-ethoxy-1-((1S,2S)-1-hydroxymethyl-2-methylbutyl)-4-oxo-1,4-dihydroquinoline-3-carboxylic acid]",–,2.7 nM
"O=C(O)c1cn(CCO)c2cc(OCC3CCCCC3)c(Cc3cccc(Cl)c3F)cc2c1=O [Example 3-63, 6-(3-Chloro-2-fluorobenzyl)-7-cyclohexylmethoxy-1-(2-hydroxyethyl)-4-oxo-1,4-dihydroquinoline-3-carboxylic acid]",–,17 nM
"CC(C)Oc1cc(Cc2cccc(Cl)c2F)cc2c(=O)c(C(=O)O)cn([C@@H](C)CO)c12 [Example 4-16, (S)-6-(3-Chloro-2-fluorobenzyl)-1-(2-hydroxy-1-methylethyl)-8-isopropyloxy-4-oxo-1,4-dihydroquinoline-3-carboxylic acid]",–,7.1 nM
"CCOc1cc(Cc2cccc(Cl)c2F)cc2c(=O)c(C(=O)O)cn([C@H](CO)C(C)C)c12 [Example 4-45, (S)-6-(3-Chloro-2-fluorobenzyl)-8-ethoxy-1-(1-hydroxymethyl-2-methylpropyl)-4-oxo-1,4-dihydroquinoline-3-carboxylic acid]",–,3.4 nM
"CN(n1cc(C(=O)O)c(=O)c2cc(Cc3cccc(Cl)c3Cl)ccc21)S(C)(=O)=O [Example 2-5, 6-(2,3-Dichlorobenzyl)-1-(N-methanesulfonyl-N-methylamino)-4-oxo-1,4-dihydroquinoline-3-carboxylic acid]",–,300 nM
"COCCn1cc(C(=O)O)c(=O)c2cc(Cc3cccc(Cl)c3Cl)ccc21 [Example 1-26, 6-(2,3-Dichlorobenzyl)-1-(2-methoxyethyl)-4-oxo-1,4-dihydroquinoline-3-carboxylic acid]",–,180 nM
O=C(O)c1cn(CCO)c2ccc(Cc3cccc(Br)c3)cc2c1=O [Example 1-96],–,230 nM
